The text below walks through data of ChEMBL document CHEMBL2016514, “Homobivalent ligands of the atypical antipsychotic clozapine: design, synthesis, and pharmacological evaluation” (J Med Chem, 2012).

Experiment [1] concerns the target T1, D(2) dopamine receptor (Homo sapiens, UniProt P14416). Put plainly: Inhibition of human dopamine D2L receptor expressed in intact CHO FlpIn cells assessed as inhibition of receptor-mediated mediated ERK1/2 phosphorylation by Alpha-Screen plate-based assay. Type of experiment: cell-based.
For experiment [2], the target named is T1, D(2) dopamine receptor. Put plainly: Displacement of [3H]-spiperone from human dopamine D2L receptor expressed in CHO FlpIn cell membrane measured after 3 hrs by topcount scintillation counting.

T1 sequence (P14416 whole entry): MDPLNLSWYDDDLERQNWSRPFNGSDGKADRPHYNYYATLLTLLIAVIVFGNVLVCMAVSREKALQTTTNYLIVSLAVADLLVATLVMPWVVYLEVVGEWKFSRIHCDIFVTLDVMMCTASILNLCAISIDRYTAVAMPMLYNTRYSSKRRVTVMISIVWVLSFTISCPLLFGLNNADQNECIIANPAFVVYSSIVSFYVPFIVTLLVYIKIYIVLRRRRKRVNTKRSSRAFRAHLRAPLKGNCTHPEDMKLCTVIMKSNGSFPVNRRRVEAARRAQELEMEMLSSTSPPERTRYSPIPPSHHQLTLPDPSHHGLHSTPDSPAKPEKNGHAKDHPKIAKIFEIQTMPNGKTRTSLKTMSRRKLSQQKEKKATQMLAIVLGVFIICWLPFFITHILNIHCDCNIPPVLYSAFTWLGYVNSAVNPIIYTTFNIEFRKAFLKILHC

Regarding `CN1CCN(C2=Nc3cc(Cl)ccc3N(NC(=O)CCCCCCC(=O)NN3c4ccc(Cl)cc4N=C(N4CCN(C)CC4)c4ccccc43)c3ccccc32)CC1`, on D(2) dopamine receptor [1] (read-out: IC50), the IC50 stood at 2440 nM.

Turning to `CN1CCN(C2=Nc3cc(Cl)ccc3N(C(=O)CCCCCCCCCCC(=O)N3c4ccc(Cl)cc4N=C(N4CCN(C)CC4)c4ccccc43)c3ccccc32)CC1`, the pIC50 on D(2) dopamine receptor [1] (cho) is reported as below 5. Besides, the IC50 on D(2) dopamine receptor [1] (read-out: IC50) was above 10000 nM.

Turning to `CN1CCN(C2=Nc3cc(Cl)ccc3N(NC(=O)CCCCC(=O)NN3c4ccc(Cl)cc4N=C(N4CCN(C)CC4)c4ccccc43)c3ccccc32)CC1`, the IC50 was 2080 nM at D(2) dopamine receptor [1] (read-out: IC50) and 2040 nM at D(2) dopamine receptor [1] (read-out: pIC50 (converted)).

In the case of `CN1CCN(C2=Nc3cc(Cl)ccc3N(NC(=O)CCCCCCCCCCCCCCCCCCC(=O)NN3c4ccc(Cl)cc4N=C(N4CCN(C)CC4)c4ccccc43)c3ccccc32)CC1`, the negative-log IC50 (pIC50) at D(2) dopamine receptor [1] (cho) is reported as below 5. For the same compound, the IC50 on D(2) dopamine receptor [1] (read-out: IC50) is above 10000 nM.

Regarding `CN1CCN(C2=Nc3cc(Cl)ccc3N(C(=O)CCCCCCCCCCCCCCCCC(=O)N3c4ccc(Cl)cc4N=C(N4CCN(C)CC4)c4ccccc43)c3ccccc32)CC1`, the pIC50 on D(2) dopamine receptor [1] (cho) is recorded as below 5. The IC50 on D(2) dopamine receptor [1] (read-out: IC50) was above 10000 nM.

In the case of `O=C(CCCCCCCCCCCCCCCCC(=O)NCCCN1CCN(C2=Nc3cc(Cl)ccc3Nc3ccccc32)CC1)NCCCN1CCN(C2=Nc3cc(Cl)ccc3Nc3ccccc32)CC1`, the results for the Ki on D(2) dopamine receptor [2] (read-out: Ki) and on D(2) dopamine receptor [2] (read-out: pKi (converted)) were 269 nM and 245 nM, respectively. Further, the IC50 at D(2) dopamine receptor [1] (read-out: IC50) is 7800 nM. Regarding `CN1CCN(C2=Nc3cc(Cl)ccc3N(NC(=O)CCCC(=O)N3CCN(C(=O)CCCC(=O)NN4c5ccc(Cl)cc5N=C(N5CCN(C)CC5)c5ccccc54)CC3)c3ccccc32)CC1`, the IC50 at D(2) dopamine receptor [1] (read-out: IC50) came to 2630 nM. For `CN1CCN(C2=Nc3cc(Cl)ccc3N(C(=O)CCCCCCC(=O)N3c4ccc(Cl)cc4N=C(N4CCN(C)CC4)c4ccccc43)c3ccccc32)CC1`, the IC50 on D(2) dopamine receptor [1] (read-out: IC50) was 2660 nM; on D(2) dopamine receptor [1] (read-out: pIC50 (converted)), 1780 nM. In the case of `CN1CCN(C2=Nc3cc(Cl)ccc3N(NC(=O)CCCCCCCCCCCCCCCCC(=O)NN3c4ccc(Cl)cc4N=C(N4CCN(C)CC4)c4ccccc43)c3ccccc32)CC1`, at D(2) dopamine receptor [1] (cho), the pIC50 is below 5. The IC50 on D(2) dopamine receptor [1] (read-out: IC50) was above 10000 nM. As for `O=C(CCCCCCC(=O)NCCCN1CCN(C2=Nc3cc(Cl)ccc3Nc3ccccc32)CC1)NCCCN1CCN(C2=Nc3cc(Cl)ccc3Nc3ccccc32)CC1`, the Ki was 1.41 nM on D(2) dopamine receptor [2] (read-out: Ki) and 1.35 nM on D(2) dopamine receptor [2] (read-out: pKi (converted)). Also, the IC50 at D(2) dopamine receptor [1] (read-out: IC50) turned out to be 23 nM. Regarding `CN1CCN(C2=Nc3cc(Cl)ccc3N(NC(=O)CCC(=O)OCCOC(=O)CCC(=O)NN3c4ccc(Cl)cc4N=C(N4CCN(C)CC4)c4ccccc43)c3ccccc32)CC1`, the IC50 at D(2) dopamine receptor [1] (read-out: IC50) amounted to 2410 nM. Same read-out and setting: the value for `CCCCCCCCCC(=O)N1c2ccc(Cl)cc2N=C(N2CCN(C)CC2)c2ccccc21` was 776 nM.

For `CN1CCN(C2=Nc3cc(Cl)ccc3N(NC(=O)CCCCCCCCCCC(=O)NN3c4ccc(Cl)cc4N=C(N4CCN(C)CC4)c4ccccc43)c3ccccc32)CC1`, the pIC50 on D(2) dopamine receptor [1] (cho) is given as below 5. Moreover, the IC50 on D(2) dopamine receptor [1] (read-out: IC50) was above 10000 nM. For `O=C(CCCCC(=O)NCCCN1CCN(C2=Nc3cc(Cl)ccc3Nc3ccccc32)CC1)NCCCN1CCN(C2=Nc3cc(Cl)ccc3Nc3ccccc32)CC1`, the figures for the Ki on D(2) dopamine receptor [2] (read-out: Ki) and on D(2) dopamine receptor [2] (read-out: pKi (converted)) were 3.6 nM and 3.16 nM, respectively. The IC50 on D(2) dopamine receptor [1] (read-out: IC50) came out at 87 nM.

For the compound `O=C(CCCCCCCCCCCCCCCCCCC(=O)NCCCN1CCN(C2=Nc3cc(Cl)ccc3Nc3ccccc32)CC1)NCCCN1CCN(C2=Nc3cc(Cl)ccc3Nc3ccccc32)CC1`, the IC50 on D(2) dopamine receptor [1] (cho, read-out: IC50) is above 10000 nM; on D(2) dopamine receptor [1] (read-out: pIC50 (converted)), above 10000 nM. On to `CN1CCN(C2=Nc3cc(Cl)ccc3N(C(=O)CCCCCCCCC(=O)N3c4ccc(Cl)cc4N=C(N4CCN(C)CC4)c4ccccc43)c3ccccc32)CC1`, for which the negative-log IC50 (pIC50) at D(2) dopamine receptor [1] (cho) was below 5. The IC50 on D(2) dopamine receptor [1] (read-out: IC50) was above 10000 nM.

For `CN1CCN(C2=Nc3cc(Cl)ccc3N(C(=O)CCCCCCCCCCCCC(=O)N3c4ccc(Cl)cc4N=C(N4CCN(C)CC4)c4ccccc43)c3ccccc32)CC1`, the pIC50 at D(2) dopamine receptor [1] (cho) is below 5. The IC50 on D(2) dopamine receptor [1] (read-out: IC50) is above 10000 nM. For `CN1CCN(C2=Nc3cc(Cl)ccc3N(C(=O)CCCCCCCCCCCCCCCCCCC(=O)N3c4ccc(Cl)cc4N=C(N4CCN(C)CC4)c4ccccc43)c3ccccc32)CC1` the same measures were below 5 and above 10000 nM. Regarding `CN1CCN(C2=Nc3cc(Cl)ccc3N(NC(=O)CCC(=O)N3CCN(C(=O)CCC(=O)NN4c5ccc(Cl)cc5N=C(N5CCN(C)CC5)c5ccccc54)CC3)c3ccccc32)CC1`, at D(2) dopamine receptor [1] (read-out: IC50), the IC50 came out at 1620 nM. For the compound `CCCCCCCCCC(=O)NCCCN1CCN(C2=Nc3cc(Cl)ccc3Nc3ccccc32)CC1`, the Ki at D(2) dopamine receptor [2] (read-out: Ki) was 9.1 nM; at D(2) dopamine receptor [2] (read-out: pKi (converted)), 8.91 nM. Further, on D(2) dopamine receptor [1] (read-out: IC50), the IC50 was found to be 1460 nM. With `CCCCCCCCCC(=O)NN1c2ccc(Cl)cc2N=C(N2CCN(C)CC2)c2ccccc21`, the IC50 on D(2) dopamine receptor [1] (read-out: IC50) came out at 8940 nM. For `O=C(CCCCCCCCC(=O)NCCCN1CCN(C2=Nc3cc(Cl)ccc3Nc3ccccc32)CC1)NCCCN1CCN(C2=Nc3cc(Cl)ccc3Nc3ccccc32)CC1`, the Ki at D(2) dopamine receptor [2] (read-out: Ki) was 1.35 nM; on D(2) dopamine receptor [2] (read-out: pKi (converted)) it was 1.23 nM. Also, on D(2) dopamine receptor [1] (read-out: IC50), the IC50 is 44 nM. On to `O=C(CCCCCCCCCCC(=O)NCCCN1CCN(C2=Nc3cc(Cl)ccc3Nc3ccccc32)CC1)NCCCN1CCN(C2=Nc3cc(Cl)ccc3Nc3ccccc32)CC1`, for which the IC50 is 1120 nM at D(2) dopamine receptor [1] (read-out: IC50) and 1100 nM at D(2) dopamine receptor [1] (read-out: pIC50 (converted)).

Regarding `CN1CCN(C2=Nc3cc(Cl)ccc3N(NC(=O)CCCCCCCCCCCCC(=O)NN3c4ccc(Cl)cc4N=C(N4CCN(C)CC4)c4ccccc43)c3ccccc32)CC1`, the pIC50 at D(2) dopamine receptor [1] (cho) was below 5. Besides, the IC50 on D(2) dopamine receptor [1] (read-out: IC50) was above 10000 nM. For `CN1CCN(C2=Nc3cc(Cl)ccc3N(NC(=O)CCCCCCCCC(=O)NN3c4ccc(Cl)cc4N=C(N4CCN(C)CC4)c4ccccc43)c3ccccc32)CC1`, in that order: below 5 and above 10000 nM.

On to `O=C(CCCCCCCCCCCCC(=O)NCCCN1CCN(C2=Nc3cc(Cl)ccc3Nc3ccccc32)CC1)NCCCN1CCN(C2=Nc3cc(Cl)ccc3Nc3ccccc32)CC1`, for which the IC50 on D(2) dopamine receptor [1] (read-out: IC50) worked out at 11000 nM.
